Results taken from patent US20260242395A1, “AMINOHETEROARYL KINASE INHIBITORS” (ALLORION THERAPEUTICS INC, priority 2022, published 2026).

Columns and labels:
Type in all cases: biochemical
CDK1/CyclinB = molecular target: T1, CDK1/CyclinB (Homo sapiens, UniProt P06493); test: CDK1/CyclinB kinase inhibitory activity (Caliper mobility shift); conditions: enzyme 3 nM, ATP 20 μM, 28° C. 30 min; read-out: CDK1/Cyclin B1 IC50
T1 construct: purchased Millipore 14-450M
Protocol: CDK1/CyclinB kinase inhibitory activity (IC50): 5 μl of various dilutions of test compound in 1× kinase buffer (50 mM HEPES pH 7.5, 10 mM MgCl2, 2 mM DTT and 0.01% Brij-35) was mixed with 10 μL of CDK1/CyclinB (Millipore, 14-450M #, final concentration 3 nM in 1× Kinase buffer) in 384 plates and incubated at room temperature for 10 min. To initiate each reaction, 10 μL of peptide solution containing fluorescently-labeled-peptide 18(5-FAM-QSPKKG-CONH2) (GL, 114202 #, final concentration 3000 nM) and ATP (final concentration 20 μM) in 1× Kinase buffer was added to each of the wells containing test compound and CDK1/CyclinB mixture. The reaction is then allowed to proceed at 28° C. for 30 min and terminated by the addition of 25 μL stop buffer (100 mM HEPES pH 7.5, 50 mM EDTA, 0.2% Coating Reagent #3 (Perkin Elmer, 760050 #) and 0.015% Brij-35).
(§1) Following the kinase reaction, Caliper EZ reader II (Downstream voltages: −500V, Upstream voltages: −2250V, Base pressure −0.5 PSI, Screen pressure −1.2 PSI) was used to separate the phosphorylated (product) and the unphosphorylated (substrate) fluorescently-labeled peptide 18 based on their different mobility. Both substrate and product were measured and the ratio of these values were used to generate % conversion by Caliper EZ reader II. These conversion values were then transformed into % inhibition of kinase activity using the formula: % Inhibition=[(MA−X)/(MA−MI)]×100% where MA=conversion value of DMSO only controls, MI=conversion value of no enzyme controls and X=conversion value at any given compound dose. IC50 values were then calculated by plotting dose-response curves and then using the XLfit application in Excel software.

CDK2/CyclinE1 = molecular target: T2, CDK2/CyclinE1 (Homo sapiens, UniProt P24941); test: CDK2/CyclinE1 kinase inhibitory activity (Caliper mobility shift); conditions: enzyme 3 nM, ATP 77 μM, 28° C. 30 min; read-out: CDK2/Cyclin E1 IC50
T2 construct: purchased Carna 04-165
Protocol: CDK2/CyclinE1 kinase inhibitory activity (IC50): 5 μl of various dilutions of test compounds in 1×kinase buffer (50 mM HEPES pH 7.5, 10 mM MgCl2, 2 mM DTT and […] Brij-35) were mixed with 10 μL of CDK2/CyclinE1 (Carna, 04-165 #, final concentration 3 nM in 1×Kinase buffer) in 384 plates and incubated at room temperature for 10 min. To initiate each reaction, 10 μL of peptide solution containing fluorescently-labeled-peptide 18(5-FAM-QSPKKG-CONH2) (GL, 114202 #, final concentration 3000 nM) and ATP (final concentration 77 μM) in 1×Kinase buffer was added to each of the wells containing test compound and CDK2/CyclinE1 mixture. The reaction was then allowed to proceed at 28° C. for 30 min and terminated by the addition of 25 μL stop buffer (100 mM HEPES pH 7.5, 50 mM EDTA, 0.2% Coating Reagent #3 (Perkin Elmer, 760050 #) and 0.015% Brij-35).
as §1

CDK7/CyclinH/MAT1 = molecular target: T3, CDK7/CyclinH/MAT1 (Homo sapiens, UniProt P50613); test: CDK7/CyclinH/MAT1 kinase inhibitory activity (Caliper mobility shift); conditions: enzyme 12.5 nM, ATP 70 μM, 28° C. 30 min; read-out: CDK7/Cyclin H/MAT1 IC50
T3 construct: purchased Millipore 14-476M
Protocol: CDK7/CyclinH/MAT1 kinase inhibitory activity (IC50): 5 μl of various dilutions of test compound in 1× kinase buffer (20 mM HEPES, pH 7.5, 10 mM MgCl2, 2 mM DTT and 0.01% Triton X-100) was mixed with 10 μL of CDK7/CyclinH/MAT1 (Millipore, 14-476M #, final concentration 12.5 nM in 1× Kinase buffer) in 384 plates and incubated at room temperature for 10 min. To initiate each reaction, 10 μL of peptide solution containing fluorescently-labeled-peptide CTD3 (5-FAM-[…], GL, SY346885 #, final concentration 3000 nM) and ATP (final concentration 70 μM) in 1× Kinase buffer was added to each of the wells containing test compound and CDK7/CyclinH/MAT1 mixture. The reaction is then allowed to proceed at 28° C. for 30 min and terminated by the addition of 25 μL stop buffer (100 mM HEPES pH 7.5, 50 mM EDTA, 0.2% Coating Reagent #3 (Perkin Elmer, 760050 #) and 0.015% Brij-35).
as §1, with “the phosphoiylated” for “the phosphorylated”, “peptide CTD3” for “peptide 18”

T1 sequence (P06493 whole entry): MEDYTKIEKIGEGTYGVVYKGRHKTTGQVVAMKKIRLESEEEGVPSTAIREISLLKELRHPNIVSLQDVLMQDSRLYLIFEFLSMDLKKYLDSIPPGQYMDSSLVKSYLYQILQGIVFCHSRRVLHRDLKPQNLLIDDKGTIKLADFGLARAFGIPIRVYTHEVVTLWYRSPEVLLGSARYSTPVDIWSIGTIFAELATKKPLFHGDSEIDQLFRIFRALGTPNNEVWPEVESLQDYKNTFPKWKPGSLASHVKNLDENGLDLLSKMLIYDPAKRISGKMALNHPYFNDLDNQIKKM
T1 sequence (P14635 whole entry partner): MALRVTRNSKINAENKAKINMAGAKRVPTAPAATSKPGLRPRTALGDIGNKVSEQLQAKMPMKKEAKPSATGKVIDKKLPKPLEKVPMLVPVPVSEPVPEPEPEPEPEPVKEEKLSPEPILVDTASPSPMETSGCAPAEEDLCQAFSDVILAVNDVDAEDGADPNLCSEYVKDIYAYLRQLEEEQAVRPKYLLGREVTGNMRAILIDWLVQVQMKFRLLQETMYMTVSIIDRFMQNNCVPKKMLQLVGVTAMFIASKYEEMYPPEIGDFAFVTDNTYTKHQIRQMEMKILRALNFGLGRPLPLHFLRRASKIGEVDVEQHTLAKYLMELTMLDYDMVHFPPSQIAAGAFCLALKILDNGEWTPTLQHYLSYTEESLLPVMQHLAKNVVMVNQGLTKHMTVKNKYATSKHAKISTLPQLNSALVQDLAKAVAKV
T3 sequence (P50613 whole entry): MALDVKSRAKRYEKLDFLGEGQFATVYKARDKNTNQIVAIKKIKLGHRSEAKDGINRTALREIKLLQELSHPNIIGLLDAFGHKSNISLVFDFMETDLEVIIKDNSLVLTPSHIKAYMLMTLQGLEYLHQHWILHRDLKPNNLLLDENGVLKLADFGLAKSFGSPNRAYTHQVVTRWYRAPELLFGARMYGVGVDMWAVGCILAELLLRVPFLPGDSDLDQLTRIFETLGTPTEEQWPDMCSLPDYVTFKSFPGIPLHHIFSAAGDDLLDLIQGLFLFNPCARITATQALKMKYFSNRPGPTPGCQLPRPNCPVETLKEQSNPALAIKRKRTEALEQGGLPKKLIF
T3 sequence (P51946 whole entry partner): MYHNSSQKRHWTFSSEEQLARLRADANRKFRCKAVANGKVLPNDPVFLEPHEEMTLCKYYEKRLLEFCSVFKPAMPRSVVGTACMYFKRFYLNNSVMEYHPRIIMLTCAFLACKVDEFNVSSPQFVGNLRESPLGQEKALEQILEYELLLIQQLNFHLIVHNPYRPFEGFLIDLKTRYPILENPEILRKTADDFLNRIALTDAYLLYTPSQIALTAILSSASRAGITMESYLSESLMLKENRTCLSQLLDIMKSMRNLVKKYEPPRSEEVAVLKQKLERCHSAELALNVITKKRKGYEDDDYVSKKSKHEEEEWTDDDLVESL
T3 sequence (P51948 whole entry partner): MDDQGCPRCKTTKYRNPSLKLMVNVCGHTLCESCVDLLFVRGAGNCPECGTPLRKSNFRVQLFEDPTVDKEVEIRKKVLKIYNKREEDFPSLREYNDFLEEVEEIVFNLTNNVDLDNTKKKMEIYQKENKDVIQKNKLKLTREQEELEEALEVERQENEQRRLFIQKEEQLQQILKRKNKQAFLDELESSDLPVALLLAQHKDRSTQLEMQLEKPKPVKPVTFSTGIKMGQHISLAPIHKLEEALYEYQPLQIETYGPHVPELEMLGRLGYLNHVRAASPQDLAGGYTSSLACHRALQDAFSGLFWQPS

| IC50 (CDK1/CyclinB) [nM] | IC50 (CDK2/CyclinE1) [nM] | IC50 (CDK7/CyclinH/MAT1) [nM] | Compound |
| --- | --- | --- | --- |
| ≥ 1000 | 100 to 1000 | ≥ 1000 | Cc1nc2c(F)cc(-c3nc(N[C@@H]4CCOC[C@H]4O)ncc3Cl)cc2c2c1CC(C)(C)NC2 [Example 98] |
| 100 to 1000 | 100 to 1000 | 100 to 1000 | [2H]c1nc2c(F)cc(-c3nc(N[C@@H]4CCOC[C@H]4O)ncc3Cl)cc2c2c1CC(C)(C)NC2 [Example 100] |
| ≥ 1000 | ≥ 1000 | ≥ 1000 | [2H]c1nc2c(F)cc(-c3nc(N[C@@H]4CCOC[C@H]4O)ncc3C)cc2c2c1CC(C)(C)NC2 [Example 102] |
| 100 to 1000 | 100 to 1000 | 100 to 1000 | CC1(C)Cc2cnc3c(F)cc(-c4ccnc(N[C@@H]5CCOC[C@H]5O)n4)cc3c2CN1 [Example 107] |
